Values after ≈ are worked out from the molar mass of the structure shown.
What was measured:
[1] = Aqueous solubility assay (PBS, pH 7.4); assay type: physicochemical; details: isotonic buffer pH 7.4, aqueous buffer, kinetic from dmso stock, buffered aqueous solution at pH 7.4, 200 μM nominal, 2% DMSO, room temperature
Experimental: (§1) Based on the promising BLI profile of compound ID2, a preliminary in vitro ADMET assessment in terms of kinetic solubility and cytotoxicity was carried out. […] Also, it was tested for cell viability in dose response against HepG2 cells, following 48 h incubation time.
Compound was dissolved in DMSO as stock solution and then added to isotonic buffer (pH 7.4) at a concentration of 200 μM (2% DMSO final concentration). After a 24 h incubation under shaking at room temperature, dissolved compound is measured by a chromatographic procedure with photodiode array detection. Metoprolol tartrate, rifampicin, ketoconazole, phenytoin, haloperidol, simvastatin, diethylstilbestrol, and tamoxifen were used as reference compounds for different solubility degrees.

HepG2 cells = experiment: Cytotoxicity assay (cell viability, alamarBlue); assay type: cell-based; details: 48 h incubation, dose response
Experimental: as §1
Compound ID2 was tested in cell viability assays with HepG2 cells. The viability of cultured cells was evaluated using alamarBlue staining as described by Nociari et al.. Concentration–response curves were prepared for each compound by testing eight concentrations in triplicate with three-fold dilutions starting from 100 µM to […]. After incubation for 48 h at 37 °C, the percentage of control activity was calculated by comparing the fluorescence reading in the presence of the test compound to that in the absence of a test compound (control). IC50 values were determined by non-linear regression analysis of the concentration–response curves. These parameters were obtained by Hill equation curve fitting. Chlorpromazine was used as a reference compound.

CCc1ccc(-c2n[nH]c3nc(-c4ccc(C(=O)O)cc4)cc(C(=O)O)c23)cc1 [ID2]
solubility kinetic at 24 h [1]: 179 µM (≈ 69.5 µg/mL)
cytotoxicity (no sign of toxicity up to the highest tested concentration) (HepG2 cells): > 100 µM

— paper PMC8308845, “Discovery of Novel Chemical Series of OXA-48 β-Lactamase Inhibitors by High-Throughput Screening” (Pharmaceuticals, 2021)
